Data on two compounds can be found in US20070010566A1, “Thiazolidinones without basic nitrogen, their production and use as pharmaceutical agents” (priority 2005, published 2007).

Experiment [1] concerns the target T1, Recombinant human Plk-1 (6×His) (Homo sapiens, UniProt P53350).
T1 construct: 6×His; made in house; host or cells: baculovirus-infected insect cells (Hi5)
Put plainly: PLK enzyme assay (33P-γ-ATP incorporation in biotinylated casein, SPA). Type of experiment: biochemical. Conditions: recombinant human Plk-1, casein substrate, 0.5 μmol of ATP, 90 minutes at room temperature; read-out: PLK-1 IC50 [nM] Inhibition. The protocol:
Recombinant human Plk-1 (6×His) was purified from baculovirus-infected insect cells (Hi5).
10 ng of (produced in a recombinant manner and purified) PLK enzyme is incubated for 90 minutes at room temperature with biotinylated casein and 33P-γ-ATP as a substrate in a volume of 15 μl in 384-well Greiner small-volume microtiter plates (final concentrations in the buffer: 660 ng/ml of PLK; 0.7 μmol of casein, 0.5 μmol of ATP incl. 400 nCi/ml of 33P-γ-ATP; 10 mmol of MgCl2, 1 mmol of MnCl2; 0.01% NP40; 1 mmol of DTT, protease inhibitors; 0.1 mmol of Na2VO3 in 50 mmol of HEPES, pH 7.5). To complete the reaction, 5 μl of stop solution (500 μmol of ATP; 500 mmol of EDTA; 1% Triton X100; 100 mg/ml of streptavidin-coated SPA beads in PBS) is added. After the microtiter plate is sealed by film, the beads are sedimented by centrifuging (10 minutes, 1500 rpm). The incorporation of 33P-γ-ATP in casein is intended as a measurement of enzyme activity by β-counting.
Test substances are used in various concentrations (0 μmol, as well as in the range of 0.01-30 μmol). The final concentration of the solvent dimethyl sulfoxide is 1.5% in all batches.

Experiment [2] deals with human MaTu breast tumour cells. Put plainly: Proliferation assay (crystal violet staining). The conditions noted are these: 96 h, incubated for 4 days with test substance, read-out: Inhibition of the Tumour Cell Proliferation (MaTu) IC50. Type of experiment: cell-based. Here is the method:
Cultivated human MaTu breast tumour cells were flattened out at a density of 5000 cells/measuring point in a 96-well multititer plate in 200 μl of the corresponding growth medium. After 24 hours, the cells of one plate (zero-point plate) were colored with crystal violet (see below), while the medium of the other plates was replaced by fresh culture medium (200 μl), to which the test substances were added at various concentrations (0 μm, as well as in the range of 0.01-30 μm; the final concentration of the solvent dimethyl sulfoxide was 0.5%). The cells were incubated for 4 days in the presence of test substances. The cell proliferation was determined by coloring the cells with crystal violet: the cells were fixed by adding 20 μl/measuring point of an 11% glutaric aldehyde solution for 15 minutes at room temperature. After three washing cycles of the fixed cells with water, the plates were dried at room temperature. The cells were colored by adding 100 μl/measuring point of a 0.1% crystal violet solution (pH was set at 3 by adding acetic acid). […] The extinction was determined by photometry at a wavelength of 595 nm. The change of cell growth, in percent, was calculated by standardization of the measured values to the extinction values of the zero-point plate (=0%) and the extinction of the untreated (0 μm) cells (=100%).

T1 sequence (P53350 whole entry): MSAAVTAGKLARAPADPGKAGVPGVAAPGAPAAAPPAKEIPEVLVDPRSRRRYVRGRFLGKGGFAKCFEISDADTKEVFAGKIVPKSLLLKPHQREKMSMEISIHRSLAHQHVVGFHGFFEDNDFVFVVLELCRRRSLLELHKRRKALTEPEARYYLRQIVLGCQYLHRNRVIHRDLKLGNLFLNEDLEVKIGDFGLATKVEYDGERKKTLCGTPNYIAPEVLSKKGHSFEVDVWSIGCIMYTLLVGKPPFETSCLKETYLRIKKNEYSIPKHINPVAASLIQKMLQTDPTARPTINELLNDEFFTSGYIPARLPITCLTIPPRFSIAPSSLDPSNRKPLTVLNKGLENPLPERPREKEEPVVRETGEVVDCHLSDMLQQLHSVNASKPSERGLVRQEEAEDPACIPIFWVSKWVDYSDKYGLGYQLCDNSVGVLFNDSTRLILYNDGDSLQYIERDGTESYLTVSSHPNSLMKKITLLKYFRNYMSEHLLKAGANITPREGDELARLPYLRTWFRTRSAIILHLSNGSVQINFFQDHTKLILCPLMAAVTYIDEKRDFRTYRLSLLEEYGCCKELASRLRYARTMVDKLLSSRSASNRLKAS

With `CCn1c(=C(C#N)C(=O)NCC(F)(F)F)sc(=Cc2nc[nH]c2C)c1=O` [Example 9], the figures for the IC50 in experiment [1] and in experiment [2] were 230 nM and 4.2 µM, respectively.
Turning to `CCn1c(=C(C#N)C(=O)NCC#N)sc(=Cc2nc[nH]c2C)c1=O` [Example 8], the IC50 is 250 nM in experiment [1] and 3.6 µM in experiment [2].
